Experiment [1] has as its target T1, pSTAT3 (pY705-STAT3) (Homo sapiens, UniProt P40763).
T1 construct: host or cells: cryopreserved PBMC
Nature of the experiment: MSD-pSTAT-PBMC Assay (pSTAT3, IL-6 stimulated). Particulars: PBMC, compound 3 hrs, then 10 ng/mL IL-6 for 10 min; MSD pY705-STAT3; read-out: pSTAT3. The class given is cell-based. Summed up: (§1)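 Phospho-STAT levels captured on anti-STAT3 or anti-STAT6 plates and detected with anti-pY705 or anti-pY641 antibodies (MSD read-out). Cryopreserved human PBMCs received compound for 3 h before a 10 min pulse of IL-6 (10 ng/mL, STAT3) or IL-4 (1 ng/mL, STAT6). IC50 fitted after unstimulated-background subtraction and DMSO normalization.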

For experiment [2], the target named is T2, pSTAT6 (pY641-STAT6) (Homo sapiens, UniProt P42226).
T2 construct: host or cells: cryopreserved PBMC
T2 sequence (P42226 1-847): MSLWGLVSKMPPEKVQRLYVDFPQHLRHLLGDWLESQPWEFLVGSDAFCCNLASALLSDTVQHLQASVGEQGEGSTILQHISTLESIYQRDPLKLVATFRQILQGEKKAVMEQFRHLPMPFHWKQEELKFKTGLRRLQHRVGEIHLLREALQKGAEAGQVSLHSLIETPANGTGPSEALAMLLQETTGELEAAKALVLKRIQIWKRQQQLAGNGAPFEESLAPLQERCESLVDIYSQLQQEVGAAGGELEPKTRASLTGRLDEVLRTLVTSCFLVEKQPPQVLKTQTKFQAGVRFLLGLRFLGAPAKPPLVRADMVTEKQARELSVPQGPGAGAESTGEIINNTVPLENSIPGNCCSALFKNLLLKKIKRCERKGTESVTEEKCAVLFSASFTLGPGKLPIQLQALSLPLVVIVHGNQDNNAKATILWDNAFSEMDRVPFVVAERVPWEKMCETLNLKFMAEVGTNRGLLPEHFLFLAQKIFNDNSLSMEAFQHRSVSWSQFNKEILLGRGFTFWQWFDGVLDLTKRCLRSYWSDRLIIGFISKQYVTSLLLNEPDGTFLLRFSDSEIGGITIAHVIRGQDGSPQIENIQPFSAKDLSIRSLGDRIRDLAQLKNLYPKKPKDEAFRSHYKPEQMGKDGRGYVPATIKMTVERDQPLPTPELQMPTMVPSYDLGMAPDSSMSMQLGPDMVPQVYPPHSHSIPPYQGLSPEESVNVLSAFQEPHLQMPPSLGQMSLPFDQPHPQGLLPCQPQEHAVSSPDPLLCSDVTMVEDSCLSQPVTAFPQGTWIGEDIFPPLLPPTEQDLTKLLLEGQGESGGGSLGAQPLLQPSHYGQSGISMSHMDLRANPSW
Briefly: MSD-pSTAT-PBMC Assay (pSTAT6, IL-4 stimulated). Particulars: compound 3 hrs, then 1 ng/mL IL-4 for 10 min. The experiment is classed as cell-based. Summed up: as §1

T1 sequence (P40763 whole entry): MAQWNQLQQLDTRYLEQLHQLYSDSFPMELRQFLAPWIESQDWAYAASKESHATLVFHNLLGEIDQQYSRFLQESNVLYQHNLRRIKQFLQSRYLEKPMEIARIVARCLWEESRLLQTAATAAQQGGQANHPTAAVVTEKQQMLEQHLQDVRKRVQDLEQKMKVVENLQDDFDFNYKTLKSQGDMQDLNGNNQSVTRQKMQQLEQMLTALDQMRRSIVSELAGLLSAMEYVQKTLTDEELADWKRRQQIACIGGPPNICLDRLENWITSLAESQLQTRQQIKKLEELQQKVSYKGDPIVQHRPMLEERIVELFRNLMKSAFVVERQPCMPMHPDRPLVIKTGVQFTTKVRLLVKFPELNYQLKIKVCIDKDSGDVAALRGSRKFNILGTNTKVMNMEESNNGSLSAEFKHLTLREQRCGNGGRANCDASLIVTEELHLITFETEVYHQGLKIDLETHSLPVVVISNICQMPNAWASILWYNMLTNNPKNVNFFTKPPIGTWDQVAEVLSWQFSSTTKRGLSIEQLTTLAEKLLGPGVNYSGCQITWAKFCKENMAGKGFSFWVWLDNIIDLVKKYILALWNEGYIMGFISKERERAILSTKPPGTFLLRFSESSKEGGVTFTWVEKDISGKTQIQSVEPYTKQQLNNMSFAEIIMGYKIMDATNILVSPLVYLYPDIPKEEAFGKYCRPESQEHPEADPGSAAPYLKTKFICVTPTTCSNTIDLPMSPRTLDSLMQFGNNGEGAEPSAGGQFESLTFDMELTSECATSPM

In the case of `CC(C)(C)C(=O)OCOP(=O)(OCOC(=O)C(C)(C)C)C(F)(F)c1ccc2sc(C(=O)N[C@H]3C[C@@H]4C[C@@H]4C[C@H]4CC[C@@H](C(=O)N5CCN(C(=O)c6cn[nH]c6)CC5)N4C3=O)cc2c1` [Compound 211, ((((2-(((3S,6S,7aS, 8aR,9aR)-3-(4-(1H-pyrazole-4-carbonyl)piperazine-1-carbonyl)-5-oxodecahydro-1H-cyclopropa[d]pyrrolo[1,2-a]azocin-6-yl)carbamoyl)benzo[b]thiophen-5-yl)difluoromethyl)phosphoryl)bis(oxy)) bis(methylene) bis(2,2-dimethyl-propanoate)], the values for the IC50 in experiment [1] and in experiment [2] were 0.1 to 1 µM and more than 3 µM, respectively.
For the compound `CC(C)OC(=O)OCOP(=O)(OCOC(=O)OC(C)C)C(F)(F)c1ccc2sc(C(=O)N[C@H]3C[C@@H]4C[C@@H]4C[C@H]4CC[C@@H](C(=O)N5CC(C(=O)N6CCOCC6)C5)N4C3=O)cc2c1` [Compound 176, (((difluoro(2-(((3S,6S,7aS, 8aR,9aR)-3-(3-(morpholine-4-carbonyl)azetidine-1-carbonyl)-5-oxodecahydro-1H-cyclopropa[d]pyrrolo[1,2-a]azocin-6-yl)carbamoyl)benzo[b]thiophen-5-yl)methyl)phosphoryl)bis(oxy)) bis(methylene) diisopropyl bis(carbonate)], the IC50 is less than 0.1 µM in experiment [1] and more than 3 µM in experiment [2].
With `CC(C)CC(=O)SCCOP(=O)(OCOC(=O)OC(C)C)C(F)(F)c1ccc2sc(C(=O)N[C@H]3C[C@@H]4C[C@@H]4C[C@H]4CC[C@@H](C(=O)N5CC(C(=O)N6CCOCC6)C5)N4C3=O)cc2c1` (stereo partly drawn) [Compound 141, S-(2-(((difluoro(2-(((3S,6S,7aS, 8aR,9aR)-3-(3-(morpholine-4-carbonyl)azetidine-1-carbonyl)-5-oxodecahydro-1H-cyclopropa [d]pyrrolo[1,2-a]azocin-6-yl)carbamoyl)benzo[b]thiophen-5-yl)methyl)(((iso-propoxy-carbonyl)oxy)methoxy)phos-phoryl)oxy)ethyl) 3-methylbutane thioate], the IC50 in experiment [1] is less than 0.1 µM; in experiment [2], 1 to 3 µM.
In the same order, the values of `CC(C)(C)C(=O)OCOP(=O)(OCOC(=O)C(C)(C)C)C(F)(F)c1ccc2sc(C(=O)N[C@H]3C[C@@H]4C[C@@H]4C[C@H]4CC[C@@H](C(=O)N[C@@H]5CCN(c6cccnc6)C5)N4C3=O)cc2c1` [Compound 212, (((difluoro(2-(((3S,6S,7aS, 8aR,9aR)-5-oxo-3-(((R)-1-(pyridin-3-yl)pyrrolidin-3-yl)carbamoyl)decahydro-1H-cyclopropa[d]pyrrolo[1,2-a]azocin-6-yl)carbamoyl)benzo[b]thiophen-5-yl)methyl)phosphoryl)bis(oxy)) bis(methylene) bis(2,2-dimethyl-propanoate)] are less than 0.1 µM and more than 3 µM.
In the same order, the values of `CC(C)(C)C(=O)OCOP(=O)(OCOC(=O)C(C)(C)C)C(F)(F)c1ccc2sc(C(=O)N[C@H]3C[C@H]4C[C@H]4C[C@H]4CC[C@@H](C(=O)N5CC(c6c[nH]cn6)C5)N4C3=O)cc2c1` [Compound 203, ((((2-(((3S,6S,7aR, 8aS,9aR)-3-(3-(1H-imidazol-4-yl)azetidine-1-carbonyl)-5-oxodecahydro-1H-cyclopropa [d]pyrrolo[1,2-a]azocin-6-yl)carbamoyl)benzo[b]thiophen-5-yl)difluoromethyl)phosphoryl)bis(oxy)) bis(methylene) bis(2,2-dimethyl-propanoate)] are less than 0.1 µM and 0.1 to 1 µM.
For `CC(C)(C)C(=O)OCOP(=O)(OCOC(=O)C(C)(C)C)C(F)(F)c1ccc2sc(C(=O)N[C@H]3C[C@@H]4C[C@@H]4C[C@H]4CC[C@@H](C(=O)N5CC6(CN(C(=O)Cc7ccccc7)C6)C5)N4C3=O)cc2c1` [Compound 210, (((difluoro(2-(((3S,6S,7aS, 8aR,9aR)-5-oxo-3-(6-(2-phenyl-acetyl)-2,6-diazaspiro[3.3]heptane-2-carbonyl)decahydro-1H-cyclopropa[d]pyrrolo[1,2-a]azocin-6-yl)carbamoyl)benzo[b]thiophen-5-yl)methyl)phosphoryl)bis(oxy)) bis(methylene) bis(2,2-dimethyl-propanoate)], the results for the IC50 in experiment [1] and in experiment [2] were less than 0.1 µM and 0.1 to 1 µM, respectively.
Turning to `CC(C)(C)C(=O)SCCOP(=O)(OCCSC(=O)C(C)(C)C)C(F)(F)c1ccc2sc(C(=O)N[C@H]3C[C@@H]4C[C@@H]4C[C@H]4CC[C@@H](C(=O)N5CC(F)(c6ccccc6)C5)N4C3=O)cc2c1` [Compound 228, S,S′-((((difluoro(2-(((3S,6S,7aS, 8aR,9aR)-3-(3-fluoro-3-phenylazetidine-1-carbonyl)-5-oxodecahydro-1H-cyclopropa[d]pyrrolo[1,2-a]azocin-6-yl)carbamoyl)benzo[b]thiophen-5-yl)methyl)phosphoryl)bis(oxy))bis(ethane-2,1-diyl)) bis(2,2-dimethyl-propanethioate)], the IC50 in experiment [1] was 0.1 to 1 µM; in experiment [2], more than 3 µM.
For `COCC(C)(C)OC(=O)OCOP(=O)(OCOC(=O)OC(C)(C)COC)C(F)(F)c1ccc2sc(C(=O)N[C@H]3C[C@@H]4C[C@@H]4C[C@H]4CC[C@@H](C(=O)N5CC(C(=O)N6CCOCC6)C5)N4C3=O)cc2c1` [Compound 161, (((difluoro(2-(((3S,6S,7aS, 8aR,9aR)-3-(3-(morpholine-4-carbonyl)azetidine-1-carbonyl)-5-oxodecahydro-1H-cyclopropa [d]pyrrolo[1,2-a]azocin-6-yl)carbamoyl)benzo[b]thiophen-5-yl)methyl)phosphoryl)bis(oxy)) bis(methylene) bis(1-methoxy-2-methylpropan-2-yl) bis(carbonate)] the same measures were less than 0.1 µM and more than 3 µM.
For `CC(C)(C)C(=O)OCOP(=O)(OCOC(=O)C(C)(C)C)C(F)(F)c1ccc2sc(C(=O)N[C@H]3C[C@@H]4C[C@@H]4C[C@H]4CC[C@@H](C(=O)N5CC(c6ccccn6)C5)N4C3=O)cc2c1` [Compound 206, (((difluoro(2-(((3S,6S,7aS, 8aR,9aR)-5-oxo-3-(3-(pyridin-2-yl)azetidine-1-carbonyl)decahydro-1H-cyclopropa[d]pyrrolo[1,2-a]azocin-6-yl)carbamoyl)benzo[b]thiophen-5-yl)methyl)phosphoryl)bis(oxy)) bis(methylene) bis(2,2-dimethyl-propanoate)] the same measures were less than 0.1 µM and 0.1 to 1 µM.
For `COCC(C)(C)OC(=O)OCOP(=O)(OCOC(=O)OC(C)(C)COC)C(F)(F)c1ccc2sc(C(=O)N[C@H]3C[C@H]4C[C@H]4C[C@H]4CC[C@@H](C(=O)N5CC(c6cccnc6)C5)N4C3=O)cc2c1` [Compound 168, (((difluoro(2-(((3S,6S,7aR, 8aS,9aR)-5-oxo-3-(3-(pyridin-3-yl)azetidine-1-carbonyl)decahydro-1H-cyclopropa[d]pyrrolo[1,2-a]azocin-6-yl)carbamoyl)benzo[b]thiophen-5-yl)methyl)phosphoryl)bis(oxy)) bis(methylene) bis(1-methoxy-2-methylpropan-2-yl) bis(carbonate)] the same measures were less than 0.1 µM and more than 3 µM.
In the case of `CC(C)(C)C(=O)SCCOP(=O)(Cc1ccc2sc(C(=O)N[C@H]3C[C@@H]4C[C@@H]4C[C@H]4CC[C@@H](C(=O)N5CC(n6ccnc6)C5)N4C3=O)cc2c1)OCCSC(=O)C(C)(C)C` [Compound 151, S,S′-(((((2-(((3S,6S,7aS, 8aR,9aR)-3-(3-(1H-imidazol-1-yl)azetidine-1-carbonyl)-5-oxodecahydro-1H-cyclopropa [d]pyrrolo[1,2-a]azocin-6-yl)carbamoyl)benzo[b]thiophen-5-yl)methyl)phosphoryl)bis(oxy))bis(ethane-2,1-diyl)) bis(2,2-dimethyl-propanethioate)], the IC50 was 0.1 to 1 µM in experiment [1] and more than 3 µM in experiment [2].
As to `C[C@H](NP(=O)(Oc1ccccc1)C(F)(F)c1ccc2sc(C(=O)N[C@H]3C[C@@H]4C[C@@H]4C[C@H]4CC[C@@H](C(=O)N5CC(C(=O)N6CCOCC6)C5)N4C3=O)cc2c1)C(=O)OCc1ccccc1` (stereo partly drawn) [Compound 173, benzyl ((difluoro(2-(((3S,6S,7aS, 8aR,9aR)-3-(3-(morpholine-4-carbonyl)azetidine-1-carbonyl)-5-oxodecahydro-1H-cyclopropa[d]pyrrolo[1,2-a]azocin-6-yl)carbamoyl)benzo[b]thiophen-5-yl)methyl) (phenoxy)phosphoryl)-L-alaninate], the results for the IC50 in experiment [1] and in experiment [2] were 1 to 3 µM and more than 3 µM, respectively.

Source of the values: US20250215030A1, “STAT MODULATORS AND USES THEREOF” (Recludix Pharma, Inc., priority 2022, published 2025).
